Results taken from a compilation of properties of binary mixtures (doi:10.1016/j.molliq.2015.11.008).

Experiment: xn = mol fraction of the nth substance listed
Conditions: 298.15 K, 101 kPa

CC(=O)[O-].CC[NH2+]CC + O
Conditions | electrical conductivity [S/m] | viscosity [mPa·s]
x1 = 0.0079 | 1.4 | –
x1 = 0.0285 | 2.35 | –
x1 = 0.0365 | 2.46 | –
x1 = 0.0444 | 2.49 | –
x1 = 0.0602 | 2.47 | –
x1 = 0.0777 | 2.33 | –
x1 = 0.098 | – | 5.81
x1 = 0.298 | – | 26.8
x1 = 0.2995 | 0.965 | –
x1 = 0.3994 | 0.669 | –
x1 = 0.403 | – | 40.7
x1 = 0.4992 | 0.525 | –
x1 = 0.501 | – | 48.1
x1 = 0.597 | – | 53.1
x1 = 0.599 | 0.407 | –
x1 = 0.662 | – | 54.6
x1 = 0.794 | 0.308 | –
x1 = 0.805 | – | 55.7
x1 = 0.8986 | 0.282 | –
x2 = 0.0048 | 0.262 | –
